Measured values from PubChem BioAssay AID1919013 (Molecular Pharmacology Branch, DTP, NCI, 2023).

Test system: LG0703-F498-PDC complex spheroid growth
Experiment: Anticancer human tumor LG0703-F498-PDC patient-derived lung adenocarcinoma cell line growth inhibition [AhR]
Settings: for IC50: curve of first compound; for viability, T/C: stronger effect = lower value
Outline: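 Agents were dosed in half-log steps down from roughly clinical Cmax, or from 10 microM where Cmax was unknown, alone and with AhR antagonists. Read-out: percent test/control growth of tumor spheroids containing HUVEC and MSC stromal cells.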

[1] = second compound 0.1 µM, first compound 0.00949 µM
[2] = second compound 0.1 µM, first compound 0.03 µM
[3] = second compound 0.1 µM, first compound 0.0949 µM
[4] = second compound 0.1 µM, first compound 0.3 µM
[5] = second compound 0.316 µM, first compound 0.00949 µM
[6] = second compound 0.316 µM, first compound 0.03 µM
[7] = second compound 0.316 µM, first compound 0.0949 µM
[8] = second compound 0.316 µM, first compound 0.3 µM
[9] = second compound 1 µM, first compound 0.00949 µM
[10] = second compound 1 µM, first compound 0.03 µM
[11] = second compound 1 µM, first compound 0.0949 µM
[12] = second compound 1 µM, first compound 0.3 µM
[13] = second compound 3.16 µM, first compound 0.00949 µM
[14] = second compound 3.16 µM, first compound 0.03 µM
[15] = second compound 3.16 µM, first compound 0.0949 µM
[16] = second compound 3.16 µM, first compound 0.3 µM
[17] = second compound 10 µM, first compound 0.00949 µM
[18] = second compound 10 µM, first compound 0.03 µM
[19] = second compound 10 µM, first compound 0.0949 µM
[20] = second compound 10 µM, first compound 0.3 µM
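Note: luminescence taken as a proxy for viable cell amount.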
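Throughout, for viability, T/C: percent of DMSO vehicle control where 100% means growth equal to vehicle.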

Work on `CC1COCCN1c1cc(C2(S(C)(=N)=O)CC2)nc(-c2ccnc3[nH]ccc23)n1` (stereo not given) + Cc1ccccc1N=Nc1ccc(NC(=O)c2ccnn2C)c(C)c1 yielded an IC50 (second compound 0.1 µM) greater than 10000 nM, an IC50 (second compound 0.316 µM) greater than 10000 nM and an IC50 (second compound 1 µM) greater than 10000 nM. The IC50 (second compound 3.16 µM) was greater than 10000 nM, the IC50 (second compound 10 µM) was greater than 10000 nM and the viability, T/C (second compound 0.1 µM, first compound 0.0316 µM) was 108%. It also gave a viability, T/C (second compound 0.1 µM, first compound 0.1 µM) of 101%, a viability, T/C (second compound 0.1 µM, first compound 0.316 µM) of 97% and a viability, T/C (second compound 0.1 µM, first compound 1 µM) of 99.5%. For the same molecule, the viability, T/C (second compound 0.1 µM, first compound 3.16 µM) was 94.8%, the viability, T/C (second compound 0.1 µM, first compound 10 µM) was 67.6% and the viability, T/C (second compound 0.316 µM, first compound 0.0316 µM) was 100%. For the same molecule, the viability, T/C (second compound 0.316 µM, first compound 0.1 µM) was 92.7%, the viability, T/C (second compound 0.316 µM, first compound 0.316 µM) was 105% and the viability, T/C (second compound 0.316 µM, first compound 1 µM) was 98%. It also gave a viability, T/C (second compound 0.316 µM, first compound 3.16 µM) of 95%, a viability, T/C (second compound 0.316 µM, first compound 10 µM) of 64.1% and a viability, T/C (second compound 1 µM, first compound 0.0316 µM) of 99.2%. The viability, T/C (second compound 1 µM, first compound 0.1 µM) was 92.9%, the viability, T/C (second compound 1 µM, first compound 0.316 µM) was 93.7% and the viability, T/C (second compound 1 µM, first compound 1 µM) was 96.6%. It also gave a viability, T/C (second compound 1 µM, first compound 3.16 µM) of 82.1%, a viability, T/C (second compound 1 µM, first compound 10 µM) of 67.4% and a viability, T/C (second compound 3.16 µM, first compound 0.0316 µM) of 81.9%. The viability, T/C (second compound 3.16 µM, first compound 0.1 µM) was 88.5%, the viability, T/C (second compound 3.16 µM, first compound 0.316 µM) was 107% and the viability, T/C (second compound 3.16 µM, first compound 1 µM) was 87.5%. The viability, T/C (second compound 3.16 µM, first compound 3.16 µM) was 68.6%, the viability, T/C (second compound 3.16 µM, first compound 10 µM) was 56.1% and the viability, T/C (second compound 10 µM, first compound 0.0316 µM) was 91.4%. The viability, T/C (second compound 10 µM, first compound 0.1 µM) was 77.2%, the viability, T/C (second compound 10 µM, first compound 0.316 µM) was 95.4% and the viability, T/C (second compound 10 µM, first compound 1 µM) was 91.9%. For the same molecule, the viability, T/C (second compound 10 µM, first compound 3.16 µM) was 79.7% and the viability, T/C (second compound 10 µM, first compound 10 µM) was 65.2%.
`Nc1ncn(C2CC(O)C(CO)S2)c(=O)n1` (stereo not given) + Cc1ccccc1N=Nc1ccc(NC(=O)c2ccnn2C)c(C)c1 gave an IC50 (second compound 0.1 µM) greater than 300 nM, an IC50 (second compound 0.316 µM) greater than 300 nM and an IC50 (second compound 1 µM) greater than 300 nM. It also gave an IC50 (second compound 3.16 µM) greater than 300 nM, an IC50 (second compound 10 µM) greater than 300 nM and a viability, T/C (second compound 0.1 µM, first compound 0.000949 µM) of 103%. The viability, T/C (second compound 0.1 µM, first compound 0.003 µM) was 105%, the viability, T/C [1] was 94.5% and the viability, T/C [2] was 91.5%. The viability, T/C [3] was 94.8%, the viability, T/C [4] was 97.2% and the viability, T/C (second compound 0.316 µM, first compound 0.000949 µM) was 102%. For the same molecule, the viability, T/C (second compound 0.316 µM, first compound 0.003 µM) was 93.9%, the viability, T/C [5] was 92.7% and the viability, T/C [6] was 93.9%. It also gave a viability, T/C [7] of 101%, a viability, T/C [8] of 111% and a viability, T/C (second compound 1 µM, first compound 0.000949 µM) of 99.3%. The viability, T/C (second compound 1 µM, first compound 0.003 µM) was 89.3%, the viability, T/C [9] was 80.5% and the viability, T/C [10] was 98.7%. It also gave a viability, T/C [11] of 88%, a viability, T/C [12] of 82.5% and a viability, T/C (second compound 3.16 µM, first compound 0.000949 µM) of 82.5%. For the same molecule, the viability, T/C (second compound 3.16 µM, first compound 0.003 µM) was 85.7%, the viability, T/C [13] was 86.6% and the viability, T/C [14] was 76.1%. It also gave a viability, T/C [15] of 78.6%, a viability, T/C [16] of 103% and a viability, T/C (second compound 10 µM, first compound 0.000949 µM) of 87%. The viability, T/C (second compound 10 µM, first compound 0.003 µM) was 86.8%, the viability, T/C [17] was 99% and the viability, T/C [18] was 77.4%. For the same molecule, the viability, T/C [19] was 85% and the viability, T/C [20] was 96.9%.
In the case of `O=C(C=Cn1cnc(-c2cc(C(F)(F)F)cc(C(F)(F)F)c2)n1)NNc1cnccn1` + Cc1ccccc1N=Nc1ccc(NC(=O)c2ccnn2C)c(C)c1, the IC50 (second compound 0.1 µM) is reported as 76.8 nM, the IC50 (second compound 0.316 µM) is reported as 70.8 nM and the IC50 (second compound 1 µM) is reported as 132 nM. It also gave an IC50 (second compound 3.16 µM) of 85.7 nM, an IC50 (second compound 10 µM) of 119 nM and a viability, T/C [1] of 76.4%. It also gave a viability, T/C [2] of 73%, a viability, T/C [3] of 44.9% and a viability, T/C [4] of 37.3%. The viability, T/C (second compound 0.1 µM, first compound 0.949 µM) was 43.8%, the viability, T/C (second compound 0.1 µM, first compound 3 µM) was 39.3% and the viability, T/C [5] was 85.4%. For the same molecule, the viability, T/C [6] was 64.2%, the viability, T/C [7] was 45.5% and the viability, T/C [8] was 39.7%. For the same molecule, the viability, T/C (second compound 0.316 µM, first compound 0.949 µM) was 46.6%, the viability, T/C (second compound 0.316 µM, first compound 3 µM) was 39.4% and the viability, T/C [9] was 83%. The viability, T/C [10] was 72%, the viability, T/C [11] was 54% and the viability, T/C [12] was 39.8%. The viability, T/C (second compound 1 µM, first compound 0.949 µM) was 40%, the viability, T/C (second compound 1 µM, first compound 3 µM) was 34.8% and the viability, T/C [13] was 71.1%. It also gave a viability, T/C [14] of 63.6%, a viability, T/C [15] of 47% and a viability, T/C [16] of 44.6%. For the same molecule, the viability, T/C (second compound 3.16 µM, first compound 0.949 µM) was 35.3%, the viability, T/C (second compound 3.16 µM, first compound 3 µM) was 39.9% and the viability, T/C [17] was 70%. For the same molecule, the viability, T/C [18] was 61.3%, the viability, T/C [19] was 50.6% and the viability, T/C [20] was 45.8%. The viability, T/C (second compound 10 µM, first compound 0.949 µM) was 39.2% and the viability, T/C (second compound 10 µM, first compound 3 µM) was 39.7%.
